ChEMBL document CHEMBL1201862, “PubChem BioAssay data set” (2004)
Activity calls are given as the source filed them.

Assays:
NADPH oxidase 1 = NADPH oxidase 1 (Homo sapiens, UniProt Q9Y5S8); experiment: Late-stage luminescence-based cell-based dose response assay to identify inhibitors of NADPH oxidase 1 (NOX1): Synthesized analogs.; type: functional
[1] = luciferase reporter signal suppression in cells – H4 neuroglioma cells, luminescence, dose response (AID 1990); type: functional, cell-based
[2] = Luminescence Cell-Based Dose Response HTS to Identify Inhibitors of 5'UTR Stem-Loop Driven Prion Protein mRNA Translation in H4 Neuroglioblastoma Cells. [Related pubchem assays: 1827 (Project Summary), 1813 (Primary HTS)]; type: functional
[3] = alpha-synuclein stem-loop luciferase translation blockers – H4 neuroglioma cells, luminescence, confirmation (AID 1988); type: functional, cell-based
[4] = viability of PTEN-deleted HCT116 cells – cell-based, HCT116 PTEN knockout, dose response (AID 1047); type: functional;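 note: HCT116 colon tumor cells with PTEN knocked out; cells exposed to compound for 60 hours before readout; potency for loss of cell viability measured by luminescence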
[5] = viability of HCT116 lacking mutant beta-catenin – cell-based, human colon tumor, dose response (AID 1045); type: functional;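 note: HCT116 colon tumor cells with beta catenin knocked out; cells exposed to compound for 60 hours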
[6] = target: Voltage-dependent T-type calcium channel subunit alpha-1H (Homo sapiens, UniProt O95180); type: functional;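 note: channel activity triggered by adding a high calcium stimulation buffer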
Voltage-dependent T-type calcium channel subunit alpha-1H, sequence (O95180 whole entry): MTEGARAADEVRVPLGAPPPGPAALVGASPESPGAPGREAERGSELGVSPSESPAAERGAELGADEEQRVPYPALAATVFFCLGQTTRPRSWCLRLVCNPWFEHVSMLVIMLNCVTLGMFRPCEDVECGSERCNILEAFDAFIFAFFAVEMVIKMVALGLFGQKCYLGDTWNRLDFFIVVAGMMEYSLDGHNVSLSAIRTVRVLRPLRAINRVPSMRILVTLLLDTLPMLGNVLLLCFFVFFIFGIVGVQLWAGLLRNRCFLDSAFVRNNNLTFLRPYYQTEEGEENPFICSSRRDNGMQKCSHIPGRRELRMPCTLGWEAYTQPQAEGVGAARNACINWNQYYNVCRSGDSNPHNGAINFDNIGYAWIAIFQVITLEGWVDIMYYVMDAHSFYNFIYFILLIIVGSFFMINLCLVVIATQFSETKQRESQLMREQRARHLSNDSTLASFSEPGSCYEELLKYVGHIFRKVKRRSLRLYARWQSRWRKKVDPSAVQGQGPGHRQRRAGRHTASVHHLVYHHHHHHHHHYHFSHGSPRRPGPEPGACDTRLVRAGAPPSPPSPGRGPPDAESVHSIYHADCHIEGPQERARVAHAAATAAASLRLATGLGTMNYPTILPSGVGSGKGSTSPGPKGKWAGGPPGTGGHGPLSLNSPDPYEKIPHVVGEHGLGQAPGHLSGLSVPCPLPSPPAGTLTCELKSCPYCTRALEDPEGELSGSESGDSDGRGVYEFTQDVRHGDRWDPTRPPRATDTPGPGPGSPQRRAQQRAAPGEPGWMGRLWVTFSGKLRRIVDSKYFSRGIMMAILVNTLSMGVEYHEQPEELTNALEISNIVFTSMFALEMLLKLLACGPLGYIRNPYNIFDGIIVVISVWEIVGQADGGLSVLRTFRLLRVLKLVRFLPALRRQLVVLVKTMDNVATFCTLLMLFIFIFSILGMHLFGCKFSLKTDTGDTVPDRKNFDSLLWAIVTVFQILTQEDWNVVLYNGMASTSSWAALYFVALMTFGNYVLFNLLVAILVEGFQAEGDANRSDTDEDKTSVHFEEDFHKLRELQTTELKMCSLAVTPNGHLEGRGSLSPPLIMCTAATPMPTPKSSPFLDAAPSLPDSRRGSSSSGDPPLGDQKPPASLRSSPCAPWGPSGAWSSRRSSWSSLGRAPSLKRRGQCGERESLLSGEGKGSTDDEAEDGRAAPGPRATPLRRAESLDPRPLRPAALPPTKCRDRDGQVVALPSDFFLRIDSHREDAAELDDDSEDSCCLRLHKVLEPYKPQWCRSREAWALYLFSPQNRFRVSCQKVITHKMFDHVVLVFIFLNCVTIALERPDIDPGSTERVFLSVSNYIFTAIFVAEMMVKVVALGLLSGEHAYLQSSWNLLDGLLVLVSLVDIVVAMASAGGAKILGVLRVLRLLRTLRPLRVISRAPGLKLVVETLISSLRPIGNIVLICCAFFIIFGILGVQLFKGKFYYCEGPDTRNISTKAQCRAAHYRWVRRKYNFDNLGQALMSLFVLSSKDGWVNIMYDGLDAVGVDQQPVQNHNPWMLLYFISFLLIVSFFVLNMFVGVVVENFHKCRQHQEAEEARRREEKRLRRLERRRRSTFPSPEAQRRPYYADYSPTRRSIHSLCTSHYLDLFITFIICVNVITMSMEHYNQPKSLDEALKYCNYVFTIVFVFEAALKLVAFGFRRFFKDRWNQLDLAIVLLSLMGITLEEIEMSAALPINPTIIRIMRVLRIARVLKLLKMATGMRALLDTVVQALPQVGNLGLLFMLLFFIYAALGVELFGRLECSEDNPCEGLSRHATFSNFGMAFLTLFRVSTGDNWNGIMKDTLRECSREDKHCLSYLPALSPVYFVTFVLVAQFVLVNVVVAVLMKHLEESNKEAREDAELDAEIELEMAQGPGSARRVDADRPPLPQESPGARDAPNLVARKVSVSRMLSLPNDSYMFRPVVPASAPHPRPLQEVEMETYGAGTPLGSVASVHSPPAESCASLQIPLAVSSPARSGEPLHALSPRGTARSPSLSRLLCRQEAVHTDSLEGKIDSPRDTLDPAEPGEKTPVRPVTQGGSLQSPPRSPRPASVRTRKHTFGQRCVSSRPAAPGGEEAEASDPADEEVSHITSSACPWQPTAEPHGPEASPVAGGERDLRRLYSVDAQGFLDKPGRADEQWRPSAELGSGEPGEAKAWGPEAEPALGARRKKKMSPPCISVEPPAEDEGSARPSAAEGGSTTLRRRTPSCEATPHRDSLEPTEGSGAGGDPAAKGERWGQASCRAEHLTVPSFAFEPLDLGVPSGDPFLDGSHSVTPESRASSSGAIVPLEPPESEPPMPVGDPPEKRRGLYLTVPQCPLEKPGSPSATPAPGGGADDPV

[7] = viability loss in Vero cells – cytotoxicity control for Vif-APOBEC3G degradation inhibitor project, dose response (AID 1117358); type: functional; details: Vero
[8] = target: T1, RNA-binding protein pos-1 (Caenorhabditis elegans, UniProt G5EF15); experiment: disruptors of C. elegans POS-1 RNA interaction – biochemical, fluorescence polarization, dose response (AID 1964);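 note: purified POS-1 fused to maltose binding protein made in E. coli; potency of compounds blocking POS-1 binding to fluorescent RNA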
T1 sequence (G5EF15 whole entry): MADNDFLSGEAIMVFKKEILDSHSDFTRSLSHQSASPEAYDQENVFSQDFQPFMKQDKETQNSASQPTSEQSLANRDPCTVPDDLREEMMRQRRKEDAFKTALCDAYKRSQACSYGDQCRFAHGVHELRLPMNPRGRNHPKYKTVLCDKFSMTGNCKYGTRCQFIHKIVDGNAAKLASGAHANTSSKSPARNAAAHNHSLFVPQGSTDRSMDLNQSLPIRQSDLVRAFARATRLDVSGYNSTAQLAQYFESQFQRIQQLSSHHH

[9] = target: T2, Zinc finger protein mex-5 (Caenorhabditis elegans, UniProt Q9XUB2); experiment: potency of MEX-5 RNA-binding blockers – biochemical, C. elegans, fluorescence polarization, dose response (AID 1960)
T2 sequence (Q9XUB2 whole entry): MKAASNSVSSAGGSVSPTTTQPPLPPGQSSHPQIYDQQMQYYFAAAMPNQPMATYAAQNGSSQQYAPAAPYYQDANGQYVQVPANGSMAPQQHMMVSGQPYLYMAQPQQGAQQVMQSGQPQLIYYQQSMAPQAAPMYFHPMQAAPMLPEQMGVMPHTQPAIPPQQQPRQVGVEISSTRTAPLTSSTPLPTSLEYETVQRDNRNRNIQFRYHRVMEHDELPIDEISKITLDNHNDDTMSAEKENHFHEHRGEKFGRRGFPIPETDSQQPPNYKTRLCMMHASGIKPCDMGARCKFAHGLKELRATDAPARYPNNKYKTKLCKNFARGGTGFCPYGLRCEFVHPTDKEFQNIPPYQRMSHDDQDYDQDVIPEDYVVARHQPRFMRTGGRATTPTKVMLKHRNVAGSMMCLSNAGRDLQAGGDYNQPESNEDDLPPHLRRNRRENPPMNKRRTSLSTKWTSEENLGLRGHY

Large T antigen = Large T antigen (Simian virus 40, UniProt P03070); type: functional, Betapolyomavirus macacae;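 note: Confirmatory-stage PubChem screen for compounds that inhibit SV40 T antigen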
Large T antigen, sequence (P03070 whole entry): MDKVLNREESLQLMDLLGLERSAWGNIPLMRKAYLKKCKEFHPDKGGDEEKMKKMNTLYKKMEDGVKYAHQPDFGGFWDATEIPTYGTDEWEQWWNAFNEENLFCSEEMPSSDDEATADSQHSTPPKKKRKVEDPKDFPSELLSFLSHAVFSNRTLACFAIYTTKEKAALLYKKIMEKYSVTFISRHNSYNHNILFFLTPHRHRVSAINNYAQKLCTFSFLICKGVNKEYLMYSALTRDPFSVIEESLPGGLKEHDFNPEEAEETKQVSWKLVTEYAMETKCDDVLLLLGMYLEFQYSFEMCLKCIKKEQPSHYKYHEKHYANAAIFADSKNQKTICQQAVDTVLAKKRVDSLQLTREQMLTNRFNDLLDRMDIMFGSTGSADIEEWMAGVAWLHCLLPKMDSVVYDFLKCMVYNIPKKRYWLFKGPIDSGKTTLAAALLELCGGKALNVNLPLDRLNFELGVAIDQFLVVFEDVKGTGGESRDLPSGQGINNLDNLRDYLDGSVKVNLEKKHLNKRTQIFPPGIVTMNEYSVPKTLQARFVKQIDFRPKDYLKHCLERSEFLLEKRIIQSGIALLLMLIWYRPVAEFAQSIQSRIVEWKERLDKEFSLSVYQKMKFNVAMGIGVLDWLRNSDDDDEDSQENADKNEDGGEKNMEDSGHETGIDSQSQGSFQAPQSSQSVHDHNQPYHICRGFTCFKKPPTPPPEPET

[10] = target: Bifunctional protein GlmU (Mycobacterium tuberculosis, UniProt P9WMN3); experiment: Inhibitors of Mycobacterial Glucosamine-1-phosphate acetyl transferase (GlmU). Secondary screen.; parameters: species or system Mycobacterium tuberculosis H37Rv
Bifunctional protein GlmU, sequence (P9WMN3 whole entry, the tested form may be a part): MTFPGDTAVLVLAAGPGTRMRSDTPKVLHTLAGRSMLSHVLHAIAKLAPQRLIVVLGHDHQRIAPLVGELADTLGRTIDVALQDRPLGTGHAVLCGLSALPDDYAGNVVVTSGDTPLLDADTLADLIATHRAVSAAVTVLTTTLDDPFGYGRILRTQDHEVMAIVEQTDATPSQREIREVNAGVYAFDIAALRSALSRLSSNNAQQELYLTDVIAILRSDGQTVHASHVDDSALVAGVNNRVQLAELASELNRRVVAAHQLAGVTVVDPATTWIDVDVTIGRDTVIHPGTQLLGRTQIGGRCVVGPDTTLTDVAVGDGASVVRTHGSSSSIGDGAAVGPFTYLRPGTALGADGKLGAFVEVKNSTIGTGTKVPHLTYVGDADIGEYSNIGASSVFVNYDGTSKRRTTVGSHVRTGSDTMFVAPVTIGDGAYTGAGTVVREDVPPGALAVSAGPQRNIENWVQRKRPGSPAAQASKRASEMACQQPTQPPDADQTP

[11] = target: T3, Carboxy-terminal domain RNA polymerase II polypeptide A small phosphatase 1 (Homo sapiens, UniProt Q9GZU7); experiment: CTDSP1 inhibitors, concentration-response, biochemical, absorbance readout, ultra-high-throughput screen actives (AID 540297); type: functional
T3 sequence (Q9GZU7 whole entry): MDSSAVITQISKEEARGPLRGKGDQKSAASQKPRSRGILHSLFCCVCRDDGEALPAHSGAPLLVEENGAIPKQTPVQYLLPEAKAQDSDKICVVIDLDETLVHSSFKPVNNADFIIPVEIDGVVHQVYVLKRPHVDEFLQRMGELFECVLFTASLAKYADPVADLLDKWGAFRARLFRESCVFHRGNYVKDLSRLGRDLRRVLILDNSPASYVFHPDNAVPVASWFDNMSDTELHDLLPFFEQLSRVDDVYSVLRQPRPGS

[12] = target: DNA (cytosine-5)-methyltransferase 1 (Homo sapiens, UniProt P26358); experiment: inhibition of DNA methylation by DNMT1 – biochemical, fluorescent molecular beacon, confirmation (AID 602386); type: functional
[13] = target: Long-chain-fatty-acid--AMP ligase FadD28 (Mycobacterium tuberculosis, UniProt P9WQ59); experiment: Fluorescence polarization aasay to screen for inhibitors that compete for the binding of FadD28 to a bisubstrate Measured in Biochemical System Using Plate Reader - 2147-01_Inhibitor_Dose_CherryPick_Activity.; type: functional, Mycobacterium tuberculosis H37Rv
Long-chain-fatty-acid--AMP ligase FadD28, sequence (P9WQ59 whole entry): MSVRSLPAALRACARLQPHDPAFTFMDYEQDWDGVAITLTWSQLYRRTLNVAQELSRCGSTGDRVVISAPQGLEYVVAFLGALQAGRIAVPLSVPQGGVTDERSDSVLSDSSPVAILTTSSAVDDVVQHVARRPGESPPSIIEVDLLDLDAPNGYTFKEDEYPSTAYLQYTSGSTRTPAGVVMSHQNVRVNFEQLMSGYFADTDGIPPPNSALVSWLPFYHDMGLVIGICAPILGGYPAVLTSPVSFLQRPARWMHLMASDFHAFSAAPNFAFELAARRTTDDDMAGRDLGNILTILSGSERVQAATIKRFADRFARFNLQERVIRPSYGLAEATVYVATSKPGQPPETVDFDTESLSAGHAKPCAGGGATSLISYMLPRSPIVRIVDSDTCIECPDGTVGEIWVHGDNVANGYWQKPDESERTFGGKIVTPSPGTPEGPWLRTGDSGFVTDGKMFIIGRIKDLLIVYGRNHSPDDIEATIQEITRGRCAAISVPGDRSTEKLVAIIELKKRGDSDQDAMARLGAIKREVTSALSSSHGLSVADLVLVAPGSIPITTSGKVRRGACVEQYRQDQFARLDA

NADPH oxidase 1, sequence (Q9Y5S8 whole entry): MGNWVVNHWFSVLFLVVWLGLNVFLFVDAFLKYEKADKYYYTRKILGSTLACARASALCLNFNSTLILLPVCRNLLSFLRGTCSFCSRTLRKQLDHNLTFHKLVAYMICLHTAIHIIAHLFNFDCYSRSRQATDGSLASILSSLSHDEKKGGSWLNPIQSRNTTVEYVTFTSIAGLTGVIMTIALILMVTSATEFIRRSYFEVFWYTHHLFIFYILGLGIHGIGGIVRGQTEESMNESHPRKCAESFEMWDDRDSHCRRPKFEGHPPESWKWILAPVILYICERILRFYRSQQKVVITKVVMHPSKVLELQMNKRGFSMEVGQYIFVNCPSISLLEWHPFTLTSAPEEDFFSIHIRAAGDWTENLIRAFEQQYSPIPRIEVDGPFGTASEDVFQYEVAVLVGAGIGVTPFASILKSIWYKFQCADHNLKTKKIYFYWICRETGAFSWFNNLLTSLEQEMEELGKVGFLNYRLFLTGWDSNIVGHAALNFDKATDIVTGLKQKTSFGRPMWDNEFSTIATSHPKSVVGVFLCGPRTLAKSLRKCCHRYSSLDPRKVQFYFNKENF

CCN1c2ccccc2S(=O)(=O)c2ccccc21
> 50 µM (not active): IC50 (NADPH oxidase 1)

CCN(Cc1ccccc1)S(=O)(=O)c1ccc(C(=O)Nc2nnc(C3CC3)o2)cc1
> 120 µM (not active): EC50 [1]
active: EC50 [2] 12.6 µM | EC50 [3] 25.3 µM | EC50 [4] 9.37 µM | EC50 [5] 8.9 µM | EC50 [6] 13.7 µM | CC50 [7] 20.2 µM

Cc1ccc(NC(=O)CN2C(=O)N/C(=C\c3cccn3-c3cccc(C(=O)O)c3)C2=O)cc1
> 300 µM (not active): EC50 [8]
active: EC50 [9] 54 µM | IC50 (Large T antigen) > 100 µM | IC50 [10] 103 µM | IC50 [11] 2.2 µM | IC50 [12] 6.05 µM | AC50 [13] 28 µM
